Patent US8951964B2, “Phenanthridine macrocyclic hepatitis C serine protease inhibitors” (priority 2010, dated 2015)
Read-outs that look alike come from different tables or passages of the source.

Assays:
Type in all cases: cell-based, HCV
[1] = system: genotype 1a replicon (1a-H77); assay: 1a stable replicon (luciferase reporter); settings: HuH-7 cells, 5% FBS
[2] = system: genotype 3a NS3 gene in transient replicon; assay: 3a transient replicon (luciferase reporter)
[3] = system: genotype 1b transient replicon; assay: 1b transient replicon (luciferase reporter); settings: HuH-7 cells, 5% FBS
[4] = system: genotype 1a transient replicon (1a-H77); assay: 1a transient replicon (luciferase reporter); settings: HuH-7 cells, 5% FBS
[5] = system: genotype 1b replicon (1b-Con1, 1b-N); assay: 1b stable replicon (luciferase reporter); settings: HuH-7 cells, 5% FBS
[6] = Hepatitis C virus, Huh-7, luciferase reporter
[7] = Hepatitis C virus, Huh-7, read-out: 3a transient replicon (nM)

Row | SMILES | EC50 [1, 6] | EC50 [2, 7] | EC50 ([3]; Hepatitis C virus) | EC50 ([4]; Hepatitis C virus) | EC50 ([5]; Hepatitis C virus) | EC50 ([1]; luciferase reporter) | EC50 ([2]; read-out: 3a transient replicon, luciferase reporter, HuH-7 cells, 5% FBS) | EC50 [3] | EC50 [4] | EC50 [5]
1 | Cc1cc(C(=O)N[C@H]2CCCCC/C=C\[C@@H]3C[C@@]3(C(=O)NS(=O)(=O)C3CC3)NC(=O)[C@@H]3C[C@@H](Oc4nc5ccccc5c5ccc(F)cc45)CN3C2=O)no1 | 100 to 500 pM | > 1 nM | 100 to 500 pM | < 100 pM | 100 to 500 pM | – | – | – | – | –
2 | CC1(S(=O)(=O)NC(=O)[C@@]23C[C@H]2/C=C\CCCCC[C@H](NC(=O)c2ccns2)C(=O)N2C[C@H](Oc4nc5cc(F)ccc5c5ccccc45)C[C@H]2C(=O)N3)CC1 | 500 to 1000 pM | > 1 nM | 100 to 500 pM | < 100 pM | 100 to 500 pM | – | – | – | – | –
3 | Cc1cc(C(=O)N[C@H]2CCCCC/C=C\[C@@H]3C[C@@]3(C(=O)NS(=O)(=O)C3CC3)NC(=O)[C@@H]3C[C@@H](Oc4nc5cc(OC(F)(F)F)ccc5c5ccccc45)CN3C2=O)no1 | 500 to 1000 pM | 0.5 to 1 nM | < 100 pM | < 100 pM | 100 to 500 pM | – | – | – | – | –
4 | CC1(S(=O)(=O)NC(=O)[C@@]23C[C@H]2/C=C\CCCCC[C@H](NC(=O)c2cncs2)C(=O)N2C[C@H](Oc4nc5cc(F)ccc5c5ccccc45)C[C@H]2C(=O)N3)CC1 | 500 to 1000 pM | > 1 nM | 100 to 500 pM | < 100 pM | 500 to 1000 pM | – | – | – | – | –
5 | CC1(S(=O)(=O)NC(=O)[C@@]23C[C@H]2/C=C\CCCCC[C@H](NC(=O)c2cscn2)C(=O)N2C[C@H](Oc4nc5ccccc5c5cc(F)ccc45)C[C@H]2C(=O)N3)CC1 | 500 to 1000 pM | > 1 nM | 100 to 500 pM | 100 to 500 pM | 100 to 500 pM | – | – | – | – | –
6 | Cn1ccc(C(=O)N[C@H]2CCCCC/C=C\[C@@H]3C[C@@]3(C(=O)NS(=O)(=O)C3(C)CC3)NC(=O)[C@@H]3C[C@@H](Oc4nc5cc(OC(F)(F)F)ccc5c5ccccc45)CN3C2=O)n1 | 100 to 500 pM | 0.1 to 0.5 nM | 100 to 500 pM | < 100 pM | < 100 pM | – | – | – | – | –
7 | COc1ccc2c(c1)c(O[C@@H]1C[C@H]3C(=O)N[C@]4(C(=O)NS(=O)(=O)C5CC5)C[C@H]4/C=C\CCCCC[C@H](NC(=O)c4cc(C)on4)C(=O)N3C1)nc1cc(OC(F)(F)F)ccc12 | 500 to 1000 pM | 0.5 to 1 nM | < 100 pM | < 100 pM | 100 to 500 pM | – | – | – | – | –
8 | Cc1ccc(C(=O)N[C@H]2CCCCC/C=C\[C@@H]3C[C@@]3(C(=O)NS(=O)(=O)C3(C)CC3)NC(=O)[C@@H]3C[C@@H](Oc4nc5cc(F)ccc5c5ccccc45)CN3C2=O)s1 | 500 to 1000 pM | < 1 nM | 100 to 500 pM | 100 to 500 pM | 100 to 500 pM | – | – | – | – | –
9 | CC1(S(=O)(=O)NC(=O)[C@@]23C[C@H]2/C=C\CCCCC[C@H](NC(=O)c2ccon2)C(=O)N2C[C@H](Oc4nc5cc(F)ccc5c5cc(F)ccc45)C[C@H]2C(=O)N3)CC1 | 100 to 500 pM | > 1 nM | < 100 pM | < 100 pM | 100 to 500 pM | – | – | – | – | –
10 | CC1(S(=O)(=O)NC(=O)[C@@]23C[C@H]2/C=C\CCCCC[C@H](NC(=O)c2ccon2)C(=O)N2C[C@H](Oc4nc5cc(F)ccc5c5ccccc45)C[C@H]2C(=O)N3)CC1 | 100 to 500 pM | 0.5 to 1 nM | 100 to 500 pM | < 100 pM | 100 to 500 pM | – | – | – | – | –
11 | O=C(N[C@H]1CCCCC/C=C\[C@@H]2C[C@@]2(C(=O)NS(=O)(=O)C2CC2)NC(=O)[C@@H]2C[C@@H](Oc3nc4cc(F)ccc4c4cc(F)ccc34)CN2C1=O)c1cscn1 [drawing 124] | 500 to 1000 pM | > 1 nM | 100 to 500 pM | 100 to 500 pM | 100 to 500 pM | – | – | – | – | –
12 | Cn1ccc(C(=O)N[C@H]2CCCCC/C=C\[C@@H]3C[C@@]3(C(=O)NS(=O)(=O)C3(C)CC3)NC(=O)[C@@H]3C[C@@H](Oc4nc5ccccc5c5ccc(F)cc45)CN3C2=O)n1 | 100 to 500 pM | 0.5 to 1 nM | 100 to 500 pM | 100 to 500 pM | < 100 pM | – | – | – | – | –
13 | CC1(S(=O)(=O)NC(=O)[C@@]23C[C@H]2/C=C\CCCCC[C@H](NC(=O)c2ccc(F)s2)C(=O)N2C[C@H](Oc4nc5cc(F)ccc5c5ccccc45)C[C@H]2C(=O)N3)CC1 | 500 to 1000 pM | > 1 nM | 100 to 500 pM | < 100 pM | 100 to 500 pM | – | – | – | – | –
14 | Cc1cc(C(=O)N[C@H]2CCCCC/C=C\[C@@H]3C[C@@]3(C(=O)NS(=O)(=O)C3CC3)NC(=O)[C@@H]3C[C@@H](Oc4nc5cc(F)ccc5c5cc(F)ccc45)CN3C2=O)no1 | 100 to 500 pM | > 1 nM | 100 to 500 pM | 100 to 500 pM | 100 to 500 pM | – | – | – | – | –
15 | Cn1ccc(C(=O)N[C@H]2CCCCC/C=C\[C@@H]3C[C@@]3(C(=O)NS(=O)(=O)C3(C)CC3)NC(=O)[C@@H]3C[C@@H](Oc4nc5ccccc5c5cc(F)ccc45)CN3C2=O)n1 | 500 to 1000 pM | 0.5 to 1 nM | 100 to 500 pM | 100 to 500 pM | 100 to 500 pM | – | – | – | – | –
16 | Cc1cc(C(=O)N[C@H]2CCCCC/C=C\[C@@H]3C[C@@]3(C(=O)NS(=O)(=O)C3CC3)NC(=O)[C@@H]3C[C@@H](Oc4nc5ccccc5c5cccc(F)c45)CN3C2=O)no1 | 100 to 500 pM | > 1 nM | 100 to 500 pM | < 100 pM | 100 to 500 pM | – | – | – | – | –
17 | CC1(S(=O)(=O)NC(=O)[C@@]23C[C@H]2/C=C\CCCCC[C@H](NC(=O)[C@@H](O)C(F)(F)F)C(=O)N2C[C@H](Oc4nc5cc(F)ccc5c5ccccc45)C[C@H]2C(=O)N3)CC1 | 500 to 1000 pM | > 1 nM | 100 to 500 pM | < 100 pM | 100 to 500 pM | – | – | – | – | –
18 | Cc1cc(C(=O)N[C@H]2CCCCC/C=C\[C@@H]3C[C@@]3(C(=O)NS(=O)(=O)C3(C)CC3)NC(=O)[C@@H]3C[C@@H](Oc4nc5cc(F)ccc5c5cc(F)ccc45)CN3C2=O)no1 | 100 to 500 pM | > 1 nM | 100 to 500 pM | < 100 pM | 100 to 500 pM | – | – | – | – | –
19 | O=C(N[C@H]1CCCCC/C=C\[C@@H]2C[C@@]2(C(=O)NS(=O)(=O)C2CC2)NC(=O)[C@@H]2C[C@@H](Oc3nc4cc(F)ccc4c4cc(F)ccc34)CN2C1=O)c1cscn1 [drawing 125] | – | – | – | – | – | > 1000 pM | > 1 nM | 100 to 500 pM | 100 to 500 pM | 100 to 500 pM
20 | COc1ccc2c(c1)nc(O[C@@H]1C[C@H]3C(=O)N[C@]4(C(=O)NS(=O)(=O)C5CC5)C[C@H]4/C=C\CCCCC[C@H](NC(=O)c4ccn(C)n4)C(=O)N3C1)c1ccc(F)cc12 | 100 to 500 pM | 0.5 to 1 nM | 500 to 1000 pM | 100 to 500 pM | 100 to 500 pM | – | – | – | – | –
